Data from patent EP0367514A2, “Human leukocyte elastase inhibitors and methods for producing and using same” (UNIVERSITY OF KENTUCKY RESEARCH FOUNDATION, priority 1988, dated 1990).

Biological target: T1, enzyme elastase, e.g., human leukocyte elastase (HLE) and porcine pancreatic elastase (PPE) (Homo sapiens, UniProt P08246)
T1 sequence (P08246 30-247): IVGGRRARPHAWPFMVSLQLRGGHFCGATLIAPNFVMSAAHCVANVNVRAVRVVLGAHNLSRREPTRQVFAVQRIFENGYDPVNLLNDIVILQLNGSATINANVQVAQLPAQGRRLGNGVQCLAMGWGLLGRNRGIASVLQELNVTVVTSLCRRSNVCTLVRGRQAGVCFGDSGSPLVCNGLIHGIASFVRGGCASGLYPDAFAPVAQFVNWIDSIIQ
Assay: Elastase enzyme inhibitory studies (Ki of peptidyl carbamates)
Format: biochemical
Description: These studies are conducted to show the activities of some of the compounds of this invention as inhibitors of various forms of the enzyme elastase.
All enzyme assays are performed spectrophotometrically at 25 C using CARY 219 or 2200 Vanan Spectrometers. The activity of PPE is measured using 5-Boc-L-alinlne p-mtrophenyl ester (Boc-Ala-ONP), as the substrate and monitoring the absorbance at 347.5 nm (p-nitrophenol). The activity of HLE is measured using methoxy succinyl-L-analyl-L-alanyl L-prolyl-L-valine pnitroanilide (MeO-Suc-Ala-Ala-Pro-Val-NA), as the substrate and following the absorbance at 410 nm (pnitroaniline). Active inhibitors are tested against other serine dependent proteolytic enzymes such as tryps in and chymotryps in using their respective substrates. N-benzoyl-L-arginine ethyl ester, N-benzoyl-L-tyrosine ethyl ester and monitonng the absorbance at 253 and 256 respectively. […]

| SMILES | Ki (inhibitor dissociation constant) [nM] |
| --- | --- |
| COC(=O)CCC(=O)NC(C)C(=O)NC(CCCCNC(=O)OCc1ccccc1)C(=O)N1CCCC1C(=O)CN(C(=O)Sc1nnnn1-c1ccccc1)C(C)C (stereo not drawn) [PC5, S-(1-phenyl-5-tetrazoyl)-N-[methoxysuccinyl-alanyl-(N∈-Carbobenzoxyl)lysylprolylmethyl]-N-isopropyl-thio carbamate] | 20 |
| COC(=O)CCC(=O)NC(CCCNC(=O)OCc1ccccc1)C(=O)NC(C)C(=O)N1CCCC1C(=O)CN(C(=O)Sc1nnnn1-c1ccccc1)C(C)C (stereo not drawn) [PC6, S-(1-phenyl-5-tetrazoyl)-N-[methoxysuccinyl-(N -carbobenzoyl)ornithylalanyl(prolylmethyl)-N-isopropylthio carbamate] | 3 |
